Source: US8486951B2 (Deciphera Pharmaceuticals, LLC, priority 2008, dated 2013)
pIC50: −log10 of the molar value.

How the values were obtained:
Format in all cases: biochemical
[1] = biological target: KDR kinase (Seq ID No. 3) (Homo sapiens, UniProt P35968, DEL940-989/E990V); assay: KDR Kinase Assay (assays K1, K2, K3); conditions: assay variant K1, K2 or K3 not stated; read-out: KDR Enzyme Assay
[2] = biological target: T1, PDGFRβ (Homo sapiens, UniProt P09619); assay: PDGFRβ Kinase Assay; conditions: read-out: PDGFRb Enzyme Assay
T1 construct: purchased Invitrogen

[3] = biological target: T2, PDGFRα kinase (Homo sapiens, UniProt P16234); assay: PDGFRα Kinase Assay; conditions: read-out: PDGFRa Enzyme Assay
T2 construct: purchased Invitrogen
Method: (§1) Activity of PDGFRα kinase was determined by following the production of ADP from the kinase reaction through coupling with the pyruvate kinase/lactate dehydrogenase system. In this assay, the oxidation of NADH (thus the decrease at A340 nm) was continuously monitored spectrophometrically. The reaction mixture (100 μl) contained PDGFRα (Invitrogen, 10 nM), polyE4Y (1 mg/ml), MgCl2 (10 mM), pyruvate kinase (4 units), lactate dehydrogenase (0.7 units), phosphoenol pyruvate (1 mM) and NADH (0.28 mM) and ATP (500 μM) in a 90 mM Tris buffer containing 0.2% octyl-glucoside and 1% DMSO, pH 7.5. The inhibition reaction was started by mixing serial diluted test compound with the above reaction mixture. The absorption at 340 nm was monitored continuously for 4 hours at 30° C. on a Polarstar Optima or Synergy 2 plate reader. The reaction rate was calculated using the 2 to 3 h time frame. Percent inhibition was obtained by comparison of reaction rate with that of a control (i.e. with no test compound). IC50 values were calculated from a series of percent inhibition values determined at a range of inhibitor concentrations using software routines as implemented in the GraphPad Prism software package.

[4] = biological target: T3, c-KIT kinase (Seq. ID no. 1) (Homo sapiens, UniProt P10721); assay: c-KIT kinase Assay (ADP production, pyruvate kinase/lactate dehydrogenase coupled); conditions: read-out: cKIT Enzyme Assay
T3 construct: purchased ProQinase
Method: In this assay, the oxidation of NADH (thus the decrease at A340 nm) was continuously monitored spectrophometrically. […] The absorption at 340 nm was monitored continuously for 0.5 hours at 30° C. on Polarstar Optima plate reader (BMG). The reaction rate was calculated using the 0 to 0.5 h time frame. Percent inhibition was obtained by comparison of reaction rate with that of a control (i.e. with no test compound). IC50 values were calculated from a series of percent inhibition values determined at a range of inhibitor concentrations using software routines as implemented in the GraphPad Prism software package.

[5] = biological target: T4, c-MET kinase (Seq. ID no. 2) (Homo sapiens, UniProt P08581); assay: c-MET Kinase Assay (ADP production, pyruvate kinase/lactate dehydrogenase coupled); conditions: read-out: cMET Enzyme Assay
T4 construct: purchased Invitrogen PV3143
Method: In this assay, the oxidation of NADH (thus the decrease at A340 nm) was continuously monitored spectrophometrically. […] Test compounds were incubated with C-Met (Seq. ID no. 2) and other reaction reagents at 22° C. for 0.5 h before ATP (100 μM) was added to start the reaction. The absorption at 340 nm was monitored continuously for 2 hours at 30° C. on Polarstar Optima plate reader (BMG). The reaction rate was calculated using the 1.0 to 2.0 h time frame. Percent inhibition was obtained by comparison of reaction rate with that of a control (i.e. with no test compound). IC50 values were calculated from a series of percent inhibition values determined at a range of inhibitor concentrations using software routines as implemented in the GraphPad Prism software package.

[6] = biological target: T5, FMS kinase (Homo sapiens, UniProt P07333); assay: FMS Kinase Assay; conditions: read-out: FMS Enzyme Assay
T5 construct: purchased Invitrogen or Millipore
Method: as §1, with “In” for “Activity of PDGFRα kinase was determined by following the production of ADP from the kinase reaction through coupling with the pyruvate kinase/lactate dehydrogenase system. In”, “FMS (purchased from Invitrogen or Millipore, 6” for “PDGFRα (Invitrogen, 10”

Chain of KDR kinase (Seq ID No. 3) (P35968 with tags, fused parts or gaps DEL940-989/E990V): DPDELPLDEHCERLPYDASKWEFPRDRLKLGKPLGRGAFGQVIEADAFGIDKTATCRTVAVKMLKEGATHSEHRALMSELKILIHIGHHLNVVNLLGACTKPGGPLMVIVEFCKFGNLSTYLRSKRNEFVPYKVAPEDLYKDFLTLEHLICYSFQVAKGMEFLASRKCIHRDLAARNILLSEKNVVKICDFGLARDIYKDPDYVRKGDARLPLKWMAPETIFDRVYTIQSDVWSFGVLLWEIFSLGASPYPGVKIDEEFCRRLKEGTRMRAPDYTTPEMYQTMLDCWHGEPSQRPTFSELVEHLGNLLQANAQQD
T1 sequence (P09619 33-1106): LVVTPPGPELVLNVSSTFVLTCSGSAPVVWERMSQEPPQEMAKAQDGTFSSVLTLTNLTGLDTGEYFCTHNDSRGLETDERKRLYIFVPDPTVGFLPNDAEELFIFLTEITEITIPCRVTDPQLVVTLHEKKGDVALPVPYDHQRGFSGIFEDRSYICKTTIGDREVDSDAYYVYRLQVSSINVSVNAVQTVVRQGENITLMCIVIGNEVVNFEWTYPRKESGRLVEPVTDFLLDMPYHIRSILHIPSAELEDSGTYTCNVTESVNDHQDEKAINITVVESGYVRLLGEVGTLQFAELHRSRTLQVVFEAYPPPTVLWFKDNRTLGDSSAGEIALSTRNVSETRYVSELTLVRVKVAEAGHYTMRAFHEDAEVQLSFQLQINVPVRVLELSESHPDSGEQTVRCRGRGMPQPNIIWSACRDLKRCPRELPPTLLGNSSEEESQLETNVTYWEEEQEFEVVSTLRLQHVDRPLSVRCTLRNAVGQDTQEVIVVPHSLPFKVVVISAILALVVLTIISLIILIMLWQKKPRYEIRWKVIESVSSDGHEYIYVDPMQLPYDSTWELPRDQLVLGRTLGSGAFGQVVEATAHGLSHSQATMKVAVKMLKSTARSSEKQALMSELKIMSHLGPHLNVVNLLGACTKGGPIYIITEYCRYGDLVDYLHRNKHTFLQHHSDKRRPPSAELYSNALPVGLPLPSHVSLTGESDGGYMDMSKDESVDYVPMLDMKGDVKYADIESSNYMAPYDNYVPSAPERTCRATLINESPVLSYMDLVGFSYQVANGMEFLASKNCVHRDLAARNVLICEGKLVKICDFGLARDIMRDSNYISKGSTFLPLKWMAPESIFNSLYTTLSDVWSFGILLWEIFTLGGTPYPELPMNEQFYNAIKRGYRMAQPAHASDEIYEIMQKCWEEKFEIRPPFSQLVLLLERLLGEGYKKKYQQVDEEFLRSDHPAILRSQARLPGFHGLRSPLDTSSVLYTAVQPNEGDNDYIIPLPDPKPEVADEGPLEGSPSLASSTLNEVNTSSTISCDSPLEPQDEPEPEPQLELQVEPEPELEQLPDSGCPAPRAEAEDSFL
T2 sequence (P16234 24-1089): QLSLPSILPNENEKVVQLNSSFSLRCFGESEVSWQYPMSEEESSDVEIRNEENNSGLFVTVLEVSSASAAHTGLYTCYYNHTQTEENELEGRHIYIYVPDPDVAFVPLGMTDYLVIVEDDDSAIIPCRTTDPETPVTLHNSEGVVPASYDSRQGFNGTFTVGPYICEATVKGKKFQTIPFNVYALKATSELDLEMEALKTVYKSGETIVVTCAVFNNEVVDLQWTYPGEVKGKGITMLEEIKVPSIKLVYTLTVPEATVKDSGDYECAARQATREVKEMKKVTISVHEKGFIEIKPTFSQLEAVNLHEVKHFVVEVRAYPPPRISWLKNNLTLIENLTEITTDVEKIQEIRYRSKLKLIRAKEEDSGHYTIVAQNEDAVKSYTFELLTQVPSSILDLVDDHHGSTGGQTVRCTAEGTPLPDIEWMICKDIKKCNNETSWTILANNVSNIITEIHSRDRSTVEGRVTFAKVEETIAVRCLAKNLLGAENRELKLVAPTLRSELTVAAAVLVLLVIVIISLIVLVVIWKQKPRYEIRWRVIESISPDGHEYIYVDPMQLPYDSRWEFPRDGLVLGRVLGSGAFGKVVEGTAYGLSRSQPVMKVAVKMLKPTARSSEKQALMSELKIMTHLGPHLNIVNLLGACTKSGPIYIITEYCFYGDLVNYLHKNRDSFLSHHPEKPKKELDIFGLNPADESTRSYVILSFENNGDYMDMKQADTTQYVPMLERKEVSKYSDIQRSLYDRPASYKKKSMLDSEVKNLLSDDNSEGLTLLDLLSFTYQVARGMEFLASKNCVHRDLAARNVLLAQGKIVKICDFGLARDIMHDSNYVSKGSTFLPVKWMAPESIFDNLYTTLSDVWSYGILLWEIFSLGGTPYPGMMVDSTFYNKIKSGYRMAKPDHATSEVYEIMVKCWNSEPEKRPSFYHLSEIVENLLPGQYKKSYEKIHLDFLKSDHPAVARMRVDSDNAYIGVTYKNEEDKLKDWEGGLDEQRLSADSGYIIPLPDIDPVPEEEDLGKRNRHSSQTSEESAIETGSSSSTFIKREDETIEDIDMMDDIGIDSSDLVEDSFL
T4 sequence (P08581 with tags, fused parts or gaps): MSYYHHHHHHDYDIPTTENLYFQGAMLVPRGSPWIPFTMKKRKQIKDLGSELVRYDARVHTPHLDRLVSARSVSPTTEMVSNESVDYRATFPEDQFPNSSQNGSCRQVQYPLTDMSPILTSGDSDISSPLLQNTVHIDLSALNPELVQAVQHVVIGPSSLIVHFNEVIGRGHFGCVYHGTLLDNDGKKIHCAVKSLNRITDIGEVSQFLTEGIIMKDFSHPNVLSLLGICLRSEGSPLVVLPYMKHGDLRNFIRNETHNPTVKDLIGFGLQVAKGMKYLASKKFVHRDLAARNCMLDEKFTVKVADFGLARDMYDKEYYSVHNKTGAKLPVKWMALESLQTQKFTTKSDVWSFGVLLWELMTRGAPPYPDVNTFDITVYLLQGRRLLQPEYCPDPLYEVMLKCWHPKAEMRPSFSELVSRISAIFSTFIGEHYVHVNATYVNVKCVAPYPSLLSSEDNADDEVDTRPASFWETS
T5 sequence (P07333 20-972): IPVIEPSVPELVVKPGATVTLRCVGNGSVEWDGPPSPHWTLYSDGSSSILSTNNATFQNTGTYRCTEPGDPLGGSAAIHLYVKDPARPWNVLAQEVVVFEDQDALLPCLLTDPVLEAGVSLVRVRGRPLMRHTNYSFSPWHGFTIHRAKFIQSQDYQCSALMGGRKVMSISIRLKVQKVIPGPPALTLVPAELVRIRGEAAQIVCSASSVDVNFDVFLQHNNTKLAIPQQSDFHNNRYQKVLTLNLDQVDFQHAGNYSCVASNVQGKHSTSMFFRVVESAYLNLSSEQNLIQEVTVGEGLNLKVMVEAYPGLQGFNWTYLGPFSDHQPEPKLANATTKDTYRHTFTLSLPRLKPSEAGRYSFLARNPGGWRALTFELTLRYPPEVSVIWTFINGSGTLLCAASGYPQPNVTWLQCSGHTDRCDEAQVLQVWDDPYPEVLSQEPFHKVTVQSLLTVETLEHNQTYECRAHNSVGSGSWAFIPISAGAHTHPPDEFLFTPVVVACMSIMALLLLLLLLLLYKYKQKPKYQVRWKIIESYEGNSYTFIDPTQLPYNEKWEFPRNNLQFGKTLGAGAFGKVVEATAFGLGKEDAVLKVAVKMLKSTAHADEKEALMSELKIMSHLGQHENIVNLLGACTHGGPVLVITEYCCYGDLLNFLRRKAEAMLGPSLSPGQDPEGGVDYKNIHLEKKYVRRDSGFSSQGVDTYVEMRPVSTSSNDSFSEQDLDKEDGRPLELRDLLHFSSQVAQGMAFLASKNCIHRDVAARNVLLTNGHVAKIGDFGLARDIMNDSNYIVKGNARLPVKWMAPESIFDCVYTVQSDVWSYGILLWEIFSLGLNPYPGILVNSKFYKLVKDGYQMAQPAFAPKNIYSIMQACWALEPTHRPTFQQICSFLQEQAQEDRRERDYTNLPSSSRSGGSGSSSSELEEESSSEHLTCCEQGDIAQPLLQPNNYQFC
T3 sequence (P10721 with tags, fused parts or gaps): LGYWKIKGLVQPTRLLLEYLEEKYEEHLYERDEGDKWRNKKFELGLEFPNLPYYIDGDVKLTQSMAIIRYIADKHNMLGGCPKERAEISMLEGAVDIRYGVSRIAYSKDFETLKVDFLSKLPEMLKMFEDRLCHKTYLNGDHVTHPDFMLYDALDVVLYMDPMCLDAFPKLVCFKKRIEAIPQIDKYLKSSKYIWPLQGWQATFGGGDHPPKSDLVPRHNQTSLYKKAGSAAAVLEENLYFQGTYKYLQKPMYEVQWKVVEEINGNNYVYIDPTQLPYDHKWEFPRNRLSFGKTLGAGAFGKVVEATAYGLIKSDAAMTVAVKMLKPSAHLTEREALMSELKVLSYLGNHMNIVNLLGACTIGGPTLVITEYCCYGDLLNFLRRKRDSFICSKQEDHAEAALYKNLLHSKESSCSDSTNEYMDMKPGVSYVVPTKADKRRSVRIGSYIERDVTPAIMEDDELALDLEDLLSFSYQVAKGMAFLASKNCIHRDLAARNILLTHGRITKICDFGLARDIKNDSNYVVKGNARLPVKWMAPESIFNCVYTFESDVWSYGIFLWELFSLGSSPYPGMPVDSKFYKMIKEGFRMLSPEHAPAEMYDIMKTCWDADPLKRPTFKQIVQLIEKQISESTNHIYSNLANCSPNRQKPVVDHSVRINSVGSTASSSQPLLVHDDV

Row | Compound | pIC50 [1] | pIC50 [5] | also measured
1 | Cn1cc(-c2cc(Oc3ccc(NC(=O)C4(C(=O)Nc5ccc(F)cc5)CC4)c(F)c3F)ccn2)cn1 [Example 1, N-(2,3-difluoro-4-(2-(1-methyl-1H-pyrazol-4-yl)pyridin-4-yloxy)phenyl)-N′-(4-fluorophenyl)cyclopropane-1,1-dicarboxamide] | > 5.70 | > 6.70 | pIC50 [2]: > 5.70; pIC50 [3]: > 6.70; pIC50 [4]: > 5.70
2 | Cn1cc(-c2cc(Oc3ccc(NC(=O)C4(C(=O)NCc5ccccc5)CC4)c(F)c3F)ccn2)cn1 [Example 3, N-benzyl-N′-(2,3-difluoro-4-(2-(1-methyl-1H-pyrazol-4-yl)pyridin-4-yloxy)phenyl)cyclopropane-1,1-dicarboxamide] | > 5.70 | – | pIC50 [2]: > 5.00; pIC50 [3]: > 5.70
3 | Cn1cc(-c2cc(Oc3ccc(NC(=O)C4(C(=O)Nc5ccc(F)c(F)c5)CC4)c(F)c3)ccn2)cn1 [Example 24, N-(3,4-difluorophenyl)-N′-(2-fluoro-4-(2-(1-methyl-1H-pyrazol-4-yl)pyridin-4-yloxy)phenyl)cyclopropane-1,1-dicarboxamide] | – | > 5.70 | –
4 | Cn1cc(-c2cc(Oc3ccc(NC(=O)C4(C(=O)Nc5ccc(F)c(C#N)c5)CC4)c(F)c3)ccn2)cn1 [Example 26, N-(3-cyano-4-fluorophenyl)-N′-(2-fluoro-4-(2-(1-methyl-1H-pyrazol-4-yl)pyridin-4-yloxy)phenyl)cyclopropane-1,1-dicarboxamide] | – | > 5.00 | –
5 | Cc1c(Oc2ccnc(-c3cnn(C)c3)c2)ccc(NC(=O)C2(C(=O)Nc3ccc(F)cc3)CC2)c1F [Example 32, N-(2-fluoro-3-methyl-4-(2-(1-methyl-1H-pyrazol-4-yl)pyridin-4-yloxy)phenyl)-N-(4-fluorophenyl)cyclopropane-1,1-dicarboxamide] | > 5.00 | > 5.70 | pIC50 [6]: > 5.70
6 | C[C@H](NC(=O)C1(C(=O)Nc2ccc(Oc3ccnc(-c4cnn(C)c4)c3)c(F)c2)CC1)c1ccc(F)cc1 [Example 33, N-(3-fluoro-4-(2-(1-methyl-1H-pyrazol-4-yl)pyridin-4-yloxy)phenyl)-N′-((S)-1-(4-fluorophenyl)ethyl)cyclopropane-1,1-dicarboxamide] | – | > 5.70 | –
7 | Cn1cc(-c2cc(Oc3ccc(NC(=O)C4(C(=O)Nc5ccc(F)cc5)CC4)cn3)ccn2)cn1 [Example 38, N-(4-fluorophenyl)-N′-(6-(2-(1-methyl-1H-pyrazol-4-yl)pyridin-4-yloxy)pyridin-3-yl)cyclopropane-1,1-dicarboxamide] | > 5.00 | > 5.70 | pIC50 [6]: > 5.00
8 | O=C(Cc1ccc(F)cc1)NC(=O)Nc1ccc(Oc2ccnc(-c3nc(C(F)(F)F)c[nH]3)c2)cc1 [Example 39, 1-(2-(4-fluorophenyl)acetyl)-3-(4-(2-(4-(trifluoromethyl)-1,1-imidazol-2-yl)pyridin-4-yloxy)phenyl)urea] | – | – | pIC50 [2]: > 5.70; pIC50 [3]: > 6.70
9 | Cc1cc(F)c(NC(=O)C2(C(=O)Nc3ccc(F)cc3)CC2)cc1Oc1nccc(-c2cnn(C)c2)n1 [Example 52, N-(2-fluoro-4-methyl-5-(4-(1-methyl-1H-pyrazol-4-yl)pyrimidin-2-yloxy)phenyl)-N′-(4-fluorophenyl)cyclopropane-1,1-dicarboxamide] | > 5.00 | > 5.00 | pIC50 [6]: > 5.00
10 | Cc1cc(F)c(NC(=O)C2(C(=O)Nc3ccc(F)cc3)CC2)cc1Oc1nccc(-c2cn[nH]c2)n1 [Example 54, N-(5-(4-(1H-pyrazol-4-yl)pyrimidin-2-yloxy)-2-fluoro-4-methylphenyl)-N′-(4-fluorophenyl)cyclopropane-1,1-dicarboxamide] | > 5.00 | > 5.00 | pIC50 [6]: > 5.00
11 | CN(C(=O)C1(C(=O)Nc2ccc(F)cc2)CC1)c1ccc(Oc2ccnc(-c3cnn(C)c3)c2)c(F)c1 [Example 58, N-(3-fluoro-4-(2-(1-methyl-1H-pyrazol-4-yl)pyridin-4-yloxy)phenyl)-N′-(4-fluorophenyl)-N-methylcyclopropane-1,1-dicarboxamide] | > 5.00 | > 5.00 | pIC50 [3]: > 5.00; pIC50 [4]: > 5.00

Further lines, with some results ahead:

Row | pIC50 [1] | pIC50 [5] | Compound | also measured
12 | – | > 5.70 | Cn1cc(-c2cc(Oc3ccc(NC(=O)C4(C(=O)Nc5ccc(C(F)(F)F)cc5)CC4)c(F)c3)ccn2)cn1 [Example 25, N-(2-fluoro-4-(2-(1-methyl-1H-pyrazol-4-yl)pyridin-4-yloxy)phenyl)-N′-(4-(trifluoromethyl)phenyl)cyclopropane-1,1-dicarboxamide] | –
13 | – | > 5.70 | Cn1cc(-c2cc(Oc3ccc(NC(=O)C4(C(=O)Nc5ccc(F)cc5F)CC4)c(F)c3)ccn2)cn1 [Example 27, N-(2,4-difluorophenyl)-N′-(2-fluoro-4-(2-(1-methyl-1H-pyrazol-4-yl)pyridin-4-yloxy)phenyl)cyclopropane-1,1-dicarboxamide] | –
14 | – | > 5.00 | Cn1cc(-c2cc(Oc3ccc(NC(=O)C4(C(=O)Nc5ccc(C#N)cc5)CC4)c(F)c3)ccn2)cn1 [Example 28, N-(4-cyanophenyl)-N′-(2-fluoro-4-(2-(1-methyl-1H-pyrazol-4-yl)pyridin-4-yloxy)phenyl)cyclopropane-1,1-dicarboxamide] | –
15 | – | > 5.70 | Cn1cc(-c2cc(Oc3ccc(NC(=O)C4(C(=O)Nc5ccc(F)cc5Cl)CC4)c(F)c3)ccn2)cn1 [Example 29, N-(2-chloro-4-fluorophenyl)-N′-(2-fluoro-4-(2-(1-methyl-1H-pyrazol-4-yl)pyridin-4-yloxy)phenyl)cyclopropane-1,1-dicarboxamide] | –
16 | – | > 5.70 | CC[C@H](NC(=O)C1(C(=O)Nc2ccc(Oc3ccnc(-c4cnn(C)c4)c3)c(F)c2)CC1)c1ccc(F)cc1 [Example 34, N-(3-fluoro-4-(2-(1-methyl-1H-pyrazol-4-yl)pyridin-4-yloxy)phenyl)-N′-((S)-1-(4-fluorophenyl)propyl)cyclopropane-1,1-dicarboxamide] | –
17 | – | > 5.70 | Cn1cc(-c2cc(Oc3ccc(NC(=O)C4(C(=O)Nc5cccs5)CC4)c(F)c3)ccn2)cn1 [Example 35, N-(2-fluoro-4-(2-(1-methyl-1H-pyrazol-4-yl)pyridin-4-yloxy)phenyl)-N′-(thiophen-2-yl)cyclopropane-1,1-dicarboxamide] | –
18 | – | > 5.70 | COC[C@H](NC(=O)C1(C(=O)Nc2ccc(Oc3ccnc(-c4cnn(C)c4)c3)c(F)c2)CC1)c1ccc(F)cc1 [Example 36, N-(3-fluoro-4-(2-(1-methyl-1H-pyrazol-4-yl)pyridin-4-yloxy)phenyl)-N′((R)-1-(4-fluorophenyl)-2-methoxyethyl)cyclopropane-1,1-dicarboxamide] | –
19 | > 5.00 | > 5.00 | Cn1cc(-c2ccnc(Oc3ccc(F)c(NC(=O)C4(C(=O)Nc5ccc(F)cc5)CC4)c3)n2)cn1 [Example 53, N-(2-fluoro-5-(4-(1-methyl-1H-pyrazol-4-yl)pyrimidin-2-yloxy)phenyl)-N′-(4-fluorophenyl)cyclopropane-1,1-dicarboxamide] | pIC50 [6]: > 5.00
20 | – | > 5.70 | O=C(Nc1ccc(F)cc1)C1(C(=O)Nc2ccc(Oc3ccnc(-c4c[nH]nn4)c3)cc2F)CC1 [Example 60, N-(4-(2-(1H-1,2,3-triazol-4-yl)pyridin-4-yloxy)-2-fluorophenyl)-N′-(4-fluorophenyl)cyclopropane-1,1-dicarboxamide] | –
